Marks after values point to notes of the source that are not given here.
Tested on: neuron apoptosis-operated rats
Assay: Example 1 water tank task (cognitive motor behavior)
Assay type: in vivo, Sprague-Dawley (SD) rats
Protocol: Cognitive testing was conducted using the water tank task (J Neurosci Methods. 11:47-60(1984)). 14 and 28 after neuron apoptosis, the rats were given a series of 3 trials, 10 min apart in a large dark-colored tank (150 cm in diameters×50 cm in height) filled with clear water at a temperature of 22.0±1.0° C. A 15×30 cm submerged platform (2 mm below water surface) was placed in the northwest quadrant of the pool. The release point was always the southern end of the pool. The rats were lowered into the pool facing the wall and were released. The swim paths of the rats for each trials were recorded with a computer interfaced camera tracking system (Smart junior, PanLab, Spain), and the distances (m) and times (sec) taken to reach the escape platform were measured.
All data were expressed as mean±standard deviation (S.D.) of ten rats. Multiple comparison tests for different dose groups were conducted. Variance homogeneity was examined using the Levene test (Levene A, Clin Otalary, 1981; 6:145-51). […] Statistical analyses were conducted using SPSS (Release 14K, SPSS Inc., USA; Ludbrook, Clin Exp Pharmacol Physiol, 1997; 24:294-6). In addition, the percent changes between neuron apoptosis control and mirodenafil treated rats were calculated to help the understanding of the efficacy of test material as follow equation 3. Percentage changes as compared with neuron apoptosis control (%)=[((Data of mirodenafil treated groups−Data of neuron apoptosis control)/Data of neuron apoptosis control)×100] [EQUATION 3]

[1] = 0.5 mg/kg s.c. once a day, at 14 days, Mean of trials
[2] = 0.5 mg/kg s.c. once a day, at 14 days, trial 1
[3] = 0.5 mg/kg s.c. once a day, at 14 days, trial 2
[4] = 0.5 mg/kg s.c. once a day, at 14 days, trial 3
[5] = 0.5 mg/kg s.c. once a day, at 28 days, Mean of trials
[6] = 0.5 mg/kg s.c. once a day, at 28 days, trial 1
[7] = 0.5 mg/kg s.c. once a day, at 28 days, trial 2
[8] = 0.5 mg/kg s.c. once a day, at 28 days, trial 3
[9] = 1 mg/kg s.c. once a day, at 14 days, Mean of trials
[10] = 1 mg/kg s.c. once a day, at 14 days, trial 1
[11] = 1 mg/kg s.c. once a day, at 14 days, trial 2
[12] = 1 mg/kg s.c. once a day, at 14 days, trial 3
[13] = 1 mg/kg s.c. once a day, at 28 days, Mean of trials
[14] = 1 mg/kg s.c. once a day, at 28 days, trial 1
[15] = 1 mg/kg s.c. once a day, at 28 days, trial 2
[16] = 1 mg/kg s.c. once a day, at 28 days, trial 3
[17] = 2 mg/kg s.c. once a day, at 14 days, Mean of trials
[18] = 2 mg/kg s.c. once a day, at 14 days, trial 1
[19] = 2 mg/kg s.c. once a day, at 14 days, trial 2
[20] = 2 mg/kg s.c. once a day, at 14 days, trial 3
[21] = 2 mg/kg s.c. once a day, at 28 days, Mean of trials
[22] = 2 mg/kg s.c. once a day, at 28 days, trial 1
[23] = 2 mg/kg s.c. once a day, at 28 days, trial 2
[24] = 2 mg/kg s.c. once a day, at 28 days, trial 3

CCCOc1ccc(S(=O)(=O)N2CCN(CCO)CC2)cc1-c1nc2c(CCC)cn(CC)c2c(=O)[nH]1 [Mirodenafil, mirodenafil]
The distance to reach the escape platform [1]: 13.36 ± 0.81^a m
The time to reach the escape platform [1]: 119.6 ± 9.53^ad sec
The distance to reach the escape platform [2]: 15.89 ± 1.14 m
The time to reach the escape platform [2]: 149.8 ± 11.05^a sec
The distance to reach the escape platform [3]: 13.35 ± 1.02^ad m
The time to reach the escape platform [3]: 118.0 ± 10.38^ad sec
The distance to reach the escape platform [4]: 10.83 ± 0.85^a m
The time to reach the escape platform [4]: 91.0 ± 11.49^ac sec
The distance to reach the escape platform [5]: 11.38 ± 0.76^ac m
The time to reach the escape platform [5]: 92.1 ± 9.98^ac sec
The distance to reach the escape platform [6]: 13.24 ± 0.83^ad m
The time to reach the escape platform [6]: 113.7 ± 9.57^ac sec
The distance to reach the escape platform [7]: 11.22 ± 1.08^ad m
The time to reach the escape platform [7]: 88.5 ± 12.48^ac sec
The distance to reach the escape platform [8]: 9.68 ± 0.75^ef m
The time to reach the escape platform [8]: 74.1 ± 10.58^ac sec
distances to reach the escape platform, change as compared with neuron apoptosis control (0.5 mg/kg, trial 1 of 28 days): −9.80%
time to reach the escape platform, change as compared with neuron apoptosis control (0.5 mg/kg, trial 1 of 28 days): −11.45%
distances to reach the escape platform, change as compared with neuron apoptosis control (0.5 mg/kg, trial 2 of 14 days): −7.93%
time to reach the escape platform, change as compared with neuron apoptosis control (0.5 mg/kg, trial 2 of 14 days): −10.47%
distances to reach the escape platform, change as compared with neuron apoptosis control (0.5 mg/kg, trial 2 of 28 days): −14.02%
time to reach the escape platform, change as compared with neuron apoptosis control (0.5 mg/kg, trial 2 of 28 days): −22.23%
distances to reach the escape platform, change as compared with neuron apoptosis control (0.5 mg/kg, trial 3 of 14 days): −9.42%
time to reach the escape platform, change as compared with neuron apoptosis control (0.5 mg/kg, trial 3 of 14 days): −18.37%
distances to reach the escape platform, change as compared with neuron apoptosis control (0.5 mg/kg, trial 3 of 28 days): −17.56%
time to reach the escape platform, change as compared with neuron apoptosis control (0.5 mg/kg, trial 3 of 28 days): −29.16%
The distance to reach the escape platform [9]: 12.83 ± 1.29^ac m
The time to reach the escape platform [9]: 116.7 ± 6.30^ac sec
The distance to reach the escape platform [10]: 15.93 ± 1.21 m
The time to reach the escape platform [10]: 150.9 ± 9.00^a sec
The distance to reach the escape platform [11]: 12.89 ± 1.61^ac m
The time to reach the escape platform [11]: 115.3 ± 8.19^ac sec
The distance to reach the escape platform [12]: 9.66 ± 1.42^ac m
The time to reach the escape platform [12]: 83.9 ± 10.10^ac sec
The distance to reach the escape platform [13]: 9.39 ± 1.33^ac m
The time to reach the escape platform [13]: 81.0 ± 8.68^ac sec
The distance to reach the escape platform [14]: 12.65 ± 1.24^ac m
The time to reach the escape platform [14]: 106.6 ± 10.52^bc sec
The distance to reach the escape platform [15]: 9.33 ± 2.17^ac m
The time to reach the escape platform [15]: 78.4 ± 13.55^ac sec
The distance to reach the escape platform [16]: 6.19 ± 1.93^ef m
The time to reach the escape platform [16]: 58.1 ± 9.22^ac sec
distances to reach the escape platform, change as compared with neuron apoptosis control (1 mg/kg, trial 1 of 28 days): −13.80%
time to reach the escape platform, change as compared with neuron apoptosis control (1 mg/kg, trial 1 of 28 days): −16.98%
distances to reach the escape platform, change as compared with neuron apoptosis control (1 mg/kg, trial 2 of 14 days): −11.07%
time to reach the escape platform, change as compared with neuron apoptosis control (1 mg/kg, trial 2 of 14 days): −12.52%
time to reach the escape platform, change as compared with neuron apoptosis control (1 mg/kg, trial 2 of 28 days): −31.11%
distances to reach the escape platform, change as compared with neuron apoptosis control (1 mg/kg, trial 3 of 14 days): −19.20%
time to reach the escape platform, change as compared with neuron apoptosis control (1 mg/kg, trial 3 of 14 days): −24.82%
distances to reach the escape platform, change as compared with neuron apoptosis control (1 mg/kg, trial 3 of 28 days): −47.33%
time to reach the escape platform, change as compared with neuron apoptosis control (1 mg/kg, trial 3 of 28 days): −44.46%
The distance to reach the escape platform [17]: 12.79 ± 0.64^ac m
The time to reach the escape platform [17]: 116.6 ± 10.88^ac sec
The distance to reach the escape platform [18]: 16.18 ± 1.49 m
The time to reach the escape platform [18]: 151.2 ± 10.59^a sec
The distance to reach the escape platform [19]: 12.68 ± 0.82^ac m
The time to reach the escape platform [19]: 115.9 ± 12.51^ac sec
The distance to reach the escape platform [20]: 9.52 ± 1.27^ac m
The time to reach the escape platform [20]: 82.7 ± 15.17^ac sec
The distance to reach the escape platform [21]: 9.46 ± 1.25^ac m
The time to reach the escape platform [21]: 80.6 ± 6.63^ac sec
The distance to reach the escape platform [22]: 12.62 ± 1.21^ac m
The time to reach the escape platform [22]: 106.5 ± 9.79^bc sec
The distance to reach the escape platform [23]: 9.18 ± 1.46^ac m
The time to reach the escape platform [23]: 78.2 ± 8.19^ac sec
The distance to reach the escape platform [24]: 6.56 ± 1.85^ef m
The time to reach the escape platform [24]: 57.2 ± 6.43^ac sec
distances to reach the escape platform, change as compared with neuron apoptosis control (2 mg/kg, trial 1 of 28 days): −14.01%
time to reach the escape platform, change as compared with neuron apoptosis control (2 mg/kg, trial 1 of 28 days): −17.06%
distances to reach the escape platform, change as compared with neuron apoptosis control (2 mg/kg, trial 2 of 14 days): −12.54%
time to reach the escape platform, change as compared with neuron apoptosis control (2 mg/kg, trial 2 of 14 days): −12.06%
distances to reach the escape platform, change as compared with neuron apoptosis control (2 mg/kg, trial 2 of 28 days): −29.65%
time to reach the escape platform, change as compared with neuron apoptosis control (2 mg/kg, trial 2 of 28 days): −31.28%
distances to reach the escape platform, change as compared with neuron apoptosis control (2 mg/kg, trial 3 of 14 days): −20.37%
time to reach the escape platform, change as compared with neuron apoptosis control (2 mg/kg, trial 3 of 14 days): −25.90%
distances to reach the escape platform, change as compared with neuron apoptosis control (2 mg/kg, trial 3 of 28 days): −44.14%
time to reach the escape platform, change as compared with neuron apoptosis control (2 mg/kg, trial 3 of 28 days): −45.32%

Reference: patent US10064865B2, “Composition comprising phosphodiesterase type 5 inhibitor for inhibiting apoptosis of nerve cells” (ARIBIO INC., priority 2012, dated 2018)
